# In patent publication US20140128472A1, “TREATMENT AND PREVENTION OF DISEASES RELATED TO OXIDATIVE STRESS” (UNIVERSITY OF PÉCS, priority 2011, published 2014):
# “Also recorded” adds a separate entry of the source.
# Legend:
# [1] = test system: Akt (PKB); experiment: Erythropoietin-dependent phosphorylation of Akt (PKB) in 3T3-L1 adipocytes (Western blot); assay type: cell-based, mouse; conditions: 25 mM glucose; various concentrations of erythropoietin
# [2] = test system: thoracic and abdominal aorta, renal and femoral arteries; experiment: Insulin-induced relaxation of isolated arterial segments after oral tyrosine isomer supplementation of rats; assay type: in vivo, Sprague-Dawley rats
# Experimental: The experiments were carried out with the permission of the Hungarian Local Animal Experiment Committee. Shortly after weaning male CFY rats (a strain of the Sprague-Dawley rat) were placed in individual cages and held on regular diet. After two hours of fasting animals (4-5 week-old, 80-140 g) were loaded with 1.76 mg/die para-, meta- or ortho-tyrosine (p-, m-, o-tyr; Sigma-Aldrich, Inc., St. Louis, Mo. 63178, USA) dissolved in saline or vehicle (saline only) by gavage (per os) six days of the week. After one month treatment, animals were either anaesthetized with ether and were decapitated with a guillotine or p-, m-, o-tyr and vehicle supplementation was discontinued (“washout” period) and they were sacrificed […] (FIG. 8.A). The descending thoracic and abdominal aorta, renal and femoral arteries were removed and cleaned from connective tissue (FIG. 19). Sections were immediately hydrolyzed for HPLC analysis or were used for vascular reactivity studies.
# In further tyrosine isomer incorporation studies when effects of chronic oral p-Tyr and o-Tyr supplementation of rats on the o-Tyr level and insulin-induced relaxation of isolated arterial segments were studied, 18 Male Sprague-Dawley rats (5-6 week-old) were used. Rats were orally supplied with either 1.76 mg/die of p-Tyr or o-Tyr or vehicle during six days per week for four weeks. […] At the end of four-week treatment, HPLC and vasomotor studies were performed. In another group of rats, p-Tyr/o-Tyr supplementation was discontinued for four weeks (“washout” period), after which they were sacrificed for HPLC and vasomotor studies.
# The modified method of Fésüs et al. (Fésüs2007) was used. The distal parts of the vessels were dissected into 2 mm long segments in ice-cold Krebs buffer and rings were mounted on two stainless steel wires (40 μm in diameter) in a Danish Multimyograph Model 610M (DMT-USA Inc., Atlanta, Ga., USA). Vessels were bathed in Krebs buffer (containing 119 mM NaCl, 4.7 mM KCl, 1.2 mM KH2PO4, 25 mM NaHCO3, 1.2 mM Mg2SO4, 11.1 mM glucose, 1.6 mM CaCl2*2H2O, pH 7.4) and gassed with 5% CO2 and 95% O2 at 37° C. The resting tension/internal circumference relationship for each vessel was determined and then the internal circumference was set to 0.9×L100, where L100 is the internal circumference the vessel would have had in vivo when relaxed under a transmural pressure of 100 mmHg After this normalization procedure vessels were allowed to stabilize for 30 min, and then isometric tension was continuously recorded. Rings were preconstricted with 100 nM epinephrine. After reaching a stabile contraction plateau, relaxant responses to increasing doses of insulin were assessed. The rate of relaxation was expressed as percentage of the contraction evoked by epinephrine (100%). Para-, meta-, ortho-tyrosine or vehicle were added to the vessel chamber 10 minutes before the addition of epinephrine and 30 minutes before the addition of insulin.
# [3] = test system: Akt (protein kinase B); experiment: Insulin-induced phosphorylation of Akt in 3T3-L1 adipocytes (Western blot); assay type: cell-based, mouse; conditions: cells grown on m-Tyr or o-Tyr; insulin 200 and 400 nmol/l
# Experimental: (§1) Primary cultures of mouse embryo fibroblasts (3T3-L1) were purchased from ATCC (Manassas, US). Early passages of 3T3-L1 fibroblasts were cultured in Dulbecco's modified Eagle medium ((DMEM, Invitrogen, CAT number: 41966-029; Sigma Aldrich CAT number: D6046) supplemented with 10% Fetal Bovine Serum (Gibco, CAT number: 16170-078), 100 U/ml penicillin and 0.1 mg/ml streptomycin (Gibco, CAT number: 15070-063) and 398 nM p-, m-, or o-Tyr. DMEM contained 25 or 5 mM glucose (depending on the experiment), L-glutamine, and pyruvate. Cells were grown in a humidified incubator at 37° C. and 5% CO2. Differentiation medium consisted of DMEM supplemented with 10% Fetal Bovine Serum (FBS, Gibco, Csertex, Budapest, Hungary, CAT number: 10106-169) (FBS), to which a cocktail was added containing […] isobuthylmethylxanthine (Sigma Aldrich, CAT number: I 5879), 0.17 nM insulin (Sigma Aldrich, CAT number: I 9278) and 250 nM dexamethasone (Sigma Aldrich, CAT number: 861871). From Day 4 onward, cells were maintained in DMEM/10% FBS containing […] insulin with a media change every other day until experimental treatments were initiated. For all treatments, cells were incubated overnight in serum-deprived medium after 90% of the cell population reached the adipocyte phenotype.
# Following the treatment cells were washed twice with Saline (4° C.) to remove any trace of the medium, then exposed to 80 μL lysis buffer/plate, containing 1.15% Triton X, 1M Trisbase, pH 7.4, 0.5 M EDTA, pH 8, 0.2 M EGTA, pH 7, 0.1 M dithiothreitol (DTT), 5 mg/ml phenylmethylsulfonyl fluoride (PMSF), 0.1 M Na3VO4, 5 mg/ml leupeptin, 5 mg/ml aprotinin, Phoshatase Inhibitor Coctail 1 and 2 (Sigma Aldrich, CAT number: P2850 and P5726). Adypocytes were scraped off mechanically and then frozen at −70° C.
# The samples of EC lysates were sonicated (2 min) and centrifuged (10 min, 13,000 rpm, at 4° C.). Protein content of samples was determined by the Bradford method using bovine serum albumin as a standard Bio-Rad Benchmark Plus. Samples were solubilized in a buffer of 100 mM Tris-HCl (pH 6.8), 4.0% sodium dodecyl sulphate (SDS), 20% glycerol, 200 mM DTT, and 0.2% bromophenol blue. […]
# Membranes were incubated overnight with the immunoglobulin G (IgG) monoclonal antibodies diluted to 1:1000 in TBS-T (0.1%), containing 5% bovine serum (BS). […] Blots were detected using enhanced chemiluminescence (ECL; Pierce Biotech, Bio-Rad, Budapest, Hungary). Computerized densitometry (integrated optical density) of the specific bands was analyzed with Scion Image for Windows Software. […]
# [4] = test system: 3T3-L1 adipocytes; experiment: Insulin-dependent uptake of deoxy-D-glucose 2-[1 2-3H(N)] into 3T3-L1 adipocytes; assay type: cell-based, mouse
# Experimental: as §1
# Cells were incubated in glucose free DMEM (Gibco, Csertex, Hungary) for 30 minutes, then treated with 2, 20, 200 or 400 nmol/l insulin for 100 minutes. Simultaneously 1 μCi/ml deoxy-D-glucose 2-[1 2-3H(N)] (3.7×104 Bq/ml) (Izotóp Intézet, Hungary) was added to the plates for 100 minutes Cells were scraped into the medium and centrifuged for 5 minutes at 1000 rpm. The sediment was dissolved in 70 μl of lysis-buffer and glucose uptake was assessed by scintillation counting measuring 30 μl of the sample with a Beckman LS 5000 TD counter in counts per minute (CPM) for five minutes each, using an average activity as the outcome. Samples were frozen overnight at −70° C. and protein concentration was measured using a Hitachi spectrophotometer. Results were normalized for protein content (Kaddai2009).
structure (smiles),measurement,setting,value
"N[C@@H](Cc1cccc(O)c1)C(=O)O [m-Tyr, Meta-L-tyrosine]",EPO-dependent Akt phosphorylation,[1],inhibited the normal increase in the Akt phosphorylation
same,"Insulin-induced relaxation, abdominal aorta, femoral (and renal) arteries","[2]; 4th week, 1.76 mg/die per os, compared to control",significantly diminished response to insulin
same,"Insulin-induced relaxation, thoracic aorta","[2]; 4th week, 1.76 mg/die per os, compared to control/other groups",did not observe any significant further decline of response to insulin
same,Chronic effects on insulin-induced vasorelaxation after washout,"[2]; 8th week, 4 weeks washout, all segments",completely abolished
same,Insulin-induced Akt phosphorylation,[3],inhibited the insulin-induced Akt-phosphorylation; also recorded: could not be significantly enhanced by insulin
same,Insulin-induced glucose uptake at equimolar concentrations with p-Tyr,"[4]; 72-72 mg/l m-Tyr or o-Tyr and p-Tyr, insulin 400 nM",fully inhibit insulin-induced glucose uptake; also recorded: insulin had no effect on glucose uptake at all
same,Insulin-dependent deoxy-D-glucose uptake,"[4]; cells grown 11 days on medium with the tyrosine isomer + 5 mM glucose, insulin 2, 20, 200, 400 nM",no insulin effect could be verified
same,Baseline glucose uptake,"[4]; cells grown on m-Tyr- or o-Tyr-containing medium (72 mg/l) for different time periods, no insulin",did not show a marked change
same,"Insulin-induced glucose uptake, time dependence","[4]; m-Tyr or o-Tyr 72 mg/l for different time periods, insulin 400 nM, time-dependent manner",blocked
same,"Ability to inhibit insulin-induced glucose uptake, dependence on concentration","[4]; m-Tyr or o-Tyr 2.25-72 mg/l with p-Tyr 72 mg/l, insulin 400 nM",concentration-dependent
